{"source": "patent US20160355465A1", "about": "“NOVEL MODIFIED CURCUMINS AND THEIR USES” (THE RESEARCH FOUNDATION OF STATE UNIVERSITY OF NEW YORK, priority 2011, published 2016)", "key": {"collagen in wound tissue": {"tested_on": "collagen in wound tissue", "test": "collagen fractions (hydroxyproline) in wound tissue of diabetic rats", "type": "in vivo, rat", "settings": "wound tissue day 6", "excerpt": "Biochemical measurements were made on wound tissue 6 days after creating the standardized 6 mm diameter wounds in the various groups of rats including: (1) non-diabetic controls (NDC); (2) Diabetic (DM) rats treated topically with 0.25% curcumin; (3) DM treated with 1% curcumin; (4) DM treated with 0.25% Compound 4, and (5) DM rats treated with 1% Compound 4. The wound tissues from these five different groups were then hydrolyzed (after extraction; see below) to degrade the collagen to individual amino acids, and the amino acid unique to collagen, hydroxyproline, was measured by a commercial colorimetric assay. Prior to hydrolysis, the wound tissues were extracted (at 4° C. to maintain the triple-helical conformation of the collagen molecules) to obtain first the salt-soluble fraction, then the acid-soluble fraction, leaving the insoluble fraction."}, "MMP-12": {"target": "MMP-12 (Homo sapiens, UniProt P39900)", "sequence (P39900 106-470)": "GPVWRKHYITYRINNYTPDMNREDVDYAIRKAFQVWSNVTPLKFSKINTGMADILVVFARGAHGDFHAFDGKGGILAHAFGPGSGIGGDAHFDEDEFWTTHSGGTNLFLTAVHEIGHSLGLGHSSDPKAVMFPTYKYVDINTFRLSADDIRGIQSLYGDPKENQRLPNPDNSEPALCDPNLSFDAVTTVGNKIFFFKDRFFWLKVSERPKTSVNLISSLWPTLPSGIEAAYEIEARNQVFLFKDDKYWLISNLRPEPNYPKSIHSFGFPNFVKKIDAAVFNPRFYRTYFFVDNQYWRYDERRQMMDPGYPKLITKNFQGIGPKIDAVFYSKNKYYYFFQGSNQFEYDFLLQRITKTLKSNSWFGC", "test": "fluorimetric assay of MMP activity", "type": "biochemical", "settings": "synthetic fluorescent peptide substrate Mca-Lys-Pro-Leu-Gly-Leu-Dpa-Ala-Arg-NH2"}, "peritoneal macrophages": {"tested_on": "peritoneal macrophages", "test": "macrophage accumulation in peritoneal exudates of diabetic rats", "type": "in vivo, rat", "settings": "oral 30 mg/kg daily, 21 days", "description": "(§1) Adult male Sprague-Dawley rats (body weight 300-350 g) were injected through the tail vein with either 0.9% saline (non-diabetic control) or with the same solution containing streptozotocin (70 mg/kg body weight) to induce diabetes. Non-diabetic rats served as normal controls. The diabetic rats were distributed into 2 experimental groups (3 rats per group). Urine glucose levels were measured weekly with Tes-Tape (Eli Lilly Inc.). One group of rats was treated by oral gavage of Compound 4 (30 mg/kg body weight) daily for 21 days; the Compound 4 was suspended in 2% carboxymethyl cellulose and polytron/homogenized. The normal & diabetic vehicle-treated (control) groups were oral gavaged with vehicle alone daily.\n(§2) Rat peritoneal macrophages were harvested with 10 ml RPMI 4 days after intraperitoneal injection of 10 ml of thioglycolate (3% wt/vol). Macrophages were then purified by density gradient centrifugation (lymphoprep) and cell numbers were counted in a hemocytometer. The cells were then tested in a cell migration assay (Cell BioLabs, Inc, CytoSelect 96-well with 5 um fluorometric format) using conditioned medium containing inflammatory mediators including MCP-1 from LPS-macrophages as a chemoattractant. The macrophages from different groups of rats were also plated onto 24 well-plates with and without p.g.LPS challenge for 24 hours in 37° C., 5% CO2. […]"}, "MMP-13": {"target": "MMP-13 (Homo sapiens, UniProt P45452)", "test": "fluorimetric assay of MMP activity", "type": "biochemical", "settings": "synthetic fluorescent peptide substrate Mca-Lys-Pro-Leu-Gly-Leu-Dpa-Ala-Arg-NH2"}, "IL-1β": {"tested_on": "IL-1β", "test": "cytokine production by peritoneal macrophages of orally treated diabetic rats in culture", "type": "in vivo, rat", "settings": "oral 30 mg/kg daily, 21 days, culture with or without P. gingivalis LPS", "description": "as §1, §2"}, "[1]": {"tested_on": "MMP-9 (92 kDa gelatinase)", "test": "gelatin zymography of skin wound extracts", "type": "in vivo, rat", "settings": "diabetic rats, all three treatments (1%, 3% topical, oral 30 mg/kg), day 7", "description": "(§3) The following five experimental groups (n=3 rats per group) were established: Non-diabetic control rats (NDC) treated by daily application of white petrolatum jelly (“vehicle”) for 7 days, diabetic rats (D group) treated daily with vehicle alone; diabetics treated by daily topical application of either a 1% (D+1%) or a 3% (D+3%) suspension of Compound 4 in the vehicle; and diabetics treated systemically by daily oral intubation of a 1 ml suspension of Compound 4 (in carboxymethylcellulose) at a dose of 30 mg/kg over the 7-day treatment protocol (D+30 mg/kg). At the end of this time period, the circular wounds were clinically assessed by measuring diameter of the wound in millimeters, blood samples were collected, the rats were sacrificed, and skin samples collected for histological/histochemical, and biochemical assessment as described below. • 1) On day 7 after inducing wound healing, the animals were anesthetized and blood samples collected for blood glucose (one Touch Ultra Glucometer; Johnson & Johnson, New Brunswick, N.J.) and Hemoglobin A1c (A1c Now+; Bayer Health Care, Sunnyvale, Calif.) measurements. • 2) Photographs were taken for clinical observations to assess wound closure. […]"}, "[2]": {"tested_on": "MMP-2 (72 kDa gelatinase)", "test": "gelatin zymography of skin wound extracts", "type": "in vivo, rat", "settings": "diabetic rats, 1% topical, day 7", "description": "as §3"}, "skin wounds": {"tested_on": "skin wounds", "test": "histological and histomorphometric assessment of skin wounds", "type": "in vivo, rat", "settings": "diabetic rats, topical 1% and systemic compared with topical 3%, 7 days", "description": "as §3"}, "MMP-3": {"target": "MMP-3 (Homo sapiens, UniProt P08254)", "sequence (P08254 100-477)": "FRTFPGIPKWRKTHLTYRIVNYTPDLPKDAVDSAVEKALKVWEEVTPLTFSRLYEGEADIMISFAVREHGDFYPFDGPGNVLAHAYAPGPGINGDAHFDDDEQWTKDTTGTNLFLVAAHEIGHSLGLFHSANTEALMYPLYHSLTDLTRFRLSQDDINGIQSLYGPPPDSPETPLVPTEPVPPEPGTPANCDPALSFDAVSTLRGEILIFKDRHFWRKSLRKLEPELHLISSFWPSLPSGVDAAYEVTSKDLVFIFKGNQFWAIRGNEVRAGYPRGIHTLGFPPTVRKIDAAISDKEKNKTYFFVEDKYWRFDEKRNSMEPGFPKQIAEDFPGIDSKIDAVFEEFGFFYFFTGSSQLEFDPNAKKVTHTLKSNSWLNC", "test": "fluorimetric assay of MMP activity", "type": "biochemical", "settings": "synthetic fluorescent peptide substrate Mca-Lys-Pro-Leu-Gly-Leu-Dpa-Ala-Arg-NH2"}, "contact dermatitis": {"tested_on": "contact dermatitis", "test": "poison ivy contact dermatitis on the arms of a human subject, topical", "type": "in vivo", "settings": "Example 9", "excerpt": "The leaves of a poison ivy plant are applied to equally sized areas of the left and right arms of a human subject."}, "[3]": {"test": "severity of hyperglycemia (blood glucose, HbA1c) in diabetic rats", "type": "in vivo, rat", "description": "as §3"}}}
{"smiles": "O=C(/C=C/c1ccc(O)cc1)C(C(=O)/C=C/c1ccc(O)cc1)C(=O)Nc1ccccc1", "note": "[Compound 4, 1,7-Bis(4-hydroxyphenyl)-4-N-phenylaminocarbonylhepta-1E, 6E-dien-3,5-dione]", "values": [{"measurement": "Collagen Fractions (%) Acid-soluble", "setting": "collagen in wound tissue; 0.25% topical", "value": 41.7, "unit": "%"}, {"measurement": "Collagen Fractions (%) Insoluble", "setting": "collagen in wound tissue; 0.25% topical", "value": 31.7, "unit": "%"}, {"measurement": "Collagen Fractions (%) Salt-soluble", "setting": "collagen in wound tissue; 0.25% topical", "value": 26.6, "unit": "%"}, {"measurement": "Collagen Fractions (%) Acid-soluble", "setting": "collagen in wound tissue; 1% topical", "value": 29.4, "unit": "%"}, {"measurement": "Collagen Fractions (%) Insoluble", "setting": "collagen in wound tissue; 1% topical", "value": 40.5, "unit": "%"}, {"measurement": "Collagen Fractions (%) Salt-soluble", "setting": "collagen in wound tissue; 1% topical", "value": 30.1, "unit": "%"}, {"measurement": "IC50", "setting": "MMP-12", "value": "2 ± 0.4", "unit": "µM"}, {"measurement": "macrophage accumulation in peritoneal exudates", "setting": "peritoneal macrophages", "value": "decreased pathologically excessive macrophage accumulation"}, {"measurement": "IC50", "setting": "MMP-13", "value": "2.7 ± 0.7", "unit": "µM"}, {"measurement": "IL-1β production by peritoneal macrophages", "setting": "IL-1β", "value": "decreased excessive inflammatory cytokine"}, {"measurement": "level of pro-MMP-9 and activated MMP-9 in skin wounds", "setting": "[1]", "value": "attenuated this diabetic effect"}, {"measurement": "MMP-2 in skin wounds", "setting": "[2]", "value": "does not suppress, and perhaps even enhances"}, {"measurement": "histological healing of epithelium and connective tissue", "setting": "skin wounds", "value": "more effective than treatment with topical 3% Compound 4"}, {"measurement": "IC50", "setting": "MMP-3", "value": "2.9 ± 0.4", "unit": "µM"}, {"measurement": "itching and healing of contact dermatitis compared with Compound 2", "setting": "contact dermatitis", "value": "stops itching sooner and heals quicker"}, {"measurement": "effect on severity of hyperglycemia", "setting": "[3]; oral 30 mg/kg daily, 21 days", "value": "did not affect the severity of hyperglycemia"}, {"measurement": "effect on severity of hyperglycemia (blood glucose, HbA1c)", "setting": "[3]; topical 1% or 3% or oral 30 mg/kg, 7 days", "value": "none of the topical or systemic treatments with Compound 4 demonstrated any effect"}]}
